Laboratory results taken from patent publication US20260364088A1, “TASL MIMICKING MOLECULES AND APPLICATIONS THEREOF” (CEMM - FORSCHUNGSZENTRUM FÜR MOLEKULARE MEDIZIN GMBH, priority 2022, published 2026).

Key:
TASL-GFP (Homo sapiens) = test: TASL-GFP levels in HEK293T cells co-expressing SLC15A4 (flow cytometry, microscopy); type: cell-based; details: HEK293T co-expressing SLC15A4, 10 µM, 24 h
Method: (§1) Cells transfected with TASL-V5 plasmid were stained for V5-tag and detected with deep red Alexa Fluor 647 secondary antibody to allow for selection in the presence of an mCherry reporter. Cells were measured either immediately after staining or in the case of live cells immediately after harvesting and washing with PBS. Data were acquired on a BD FACSCalibur (BD Biosciences) and analyzed with FlowJo software (version 10).
(§2) For live cell imaging cells were plated in PhenoPlate 96-well plates or Ibidi m-Slide 8 (Ibidi) wells at 16 k/well and incubated over-night. Then compounds were added, if indicated, and cells were imaged after 24 h of incubation. Cells were stained with LysoTracker Deep Red L12492 (ThermoFisher) and Hoechst 34580 (ThermoFisher). […] Images were analyzed with Fiji-ImageJ.
(§3) Encouraged by the fact that the chemical entity of the present invention was showing the desired behavior and specificity profile, it became important to better clarify the molecular basis of this uncommon mechanism of action, i.e interference with a highly specific protein interaction leading to degradation of a single complex component. The effect of dTASL1 on complex assembly was first monitored. […]

TASL-GFP = TASL-GFP (Homo sapiens, UniProt Q8N697); test: as above; type: cell-based; details: HEK293T co-expressing SLC15A4, 10 µM, 24 h
Method: as §1, §2, §3

TASL-SLC15A4 complex = TASL-SLC15A4 complex (Homo sapiens, UniProt Q8N697); test: PM-associated TASL levels in cells coexpressing ΔN-SLC15A4 and TASL-GFP; type: cell-based; details: 10 µM, 24 h
Method: For live cell imaging cells were plated in PhenoPlate 96-well plates or Ibidi m-Slide 8 (Ibidi) wells at 16 k/well and incubated over-night. Then compounds were added, if indicated, and cells were imaged after 24 h of incubation. Cells were stained with LysoTracker Deep Red L12492 (ThermoFisher) and Hoechst 34580 (ThermoFisher). PhenoPlate images were acquired on an Opera Phenix Plus High-Content Screening System (PerkinElmer) and m-Slide images were acquired on a confocal laser scanning microscope (Zeiss LSM980, Carl Zeiss) equipped with an incubation chamber. Images were analyzed with Fiji-ImageJ.
Encouraged by the fact that the chemical entity of the present invention was showing the desired behavior and specificity profile, it became important to better clarify the molecular basis of this uncommon mechanism of action, i.e interference with a highly specific protein interaction leading to degradation of a single complex component. The effect of dTASL1 on complex assembly was first monitored. […] While total levels of SLC15A4-GFP were unaltered, localization appears to reflect some lysosomal rearrangement. […] To further rule out the residual possibility of an indirect effect, possibly related to TASL maturation or transport, dTASL1 competition assays with GFP-SLC15A4 associated with short N-terminal portions of TASL protein were performed. […]

IRF5 = test: Microscopy-based IRF5 nuclear translocation assay in CAL-1 cells; details: human monocytic and pDC cell lines
Method: CAL-1, THP1 or human primary cells were incubated with dTASL1 and other identified compounds (or the corresponding volume of DMSO vehicle) for 24 h or 48 h at the indicated concentration and subsequently stimulated with R848 (5 μg/ml) for the indicated time. Supernatant or cells were recovered for ELISA, SDS-PAGE or microscopy-based analysis.
5×10^5 CAL-1 cells in 500 μl medium (wildtype, drug-treated or gene-deficient as indicated) were seeded on poly-L-lysine hydrobromide (P6282, Sigma-Aldrich)-coated coverslips in 24-well cell culture plates and immediately stimulated with 5 μg/ml R848 (Invivogen) or left unstimulated. Afterwards, medium was removed and cells were fixed with 4% formaldehyde in PBS for 15 minutes at room temperature (RT), followed by blocking and permeabilization with 5% FBS and 0.3% Triton X-100 in PBS for 1 h at RT. […]
Images were acquired on a Zeiss LSM-980 equipped with an AiryScan2 detector and processed in Zeiss ZEN version 3.6. Computational image analysis was performed with CellProfiler version 4.2.4 and data analyzed in R version 4.2.1 facilitating the following packages: ‘tidyverse’, ‘data.table’ and ‘ggpubr’. In brief nuclei and cytoplasmic regions were identified and nuclear to cytoplasmic median intensity ratios were calculated on a single cell level. […]

Sequence of TASL-GFP (Q8N697 whole entry): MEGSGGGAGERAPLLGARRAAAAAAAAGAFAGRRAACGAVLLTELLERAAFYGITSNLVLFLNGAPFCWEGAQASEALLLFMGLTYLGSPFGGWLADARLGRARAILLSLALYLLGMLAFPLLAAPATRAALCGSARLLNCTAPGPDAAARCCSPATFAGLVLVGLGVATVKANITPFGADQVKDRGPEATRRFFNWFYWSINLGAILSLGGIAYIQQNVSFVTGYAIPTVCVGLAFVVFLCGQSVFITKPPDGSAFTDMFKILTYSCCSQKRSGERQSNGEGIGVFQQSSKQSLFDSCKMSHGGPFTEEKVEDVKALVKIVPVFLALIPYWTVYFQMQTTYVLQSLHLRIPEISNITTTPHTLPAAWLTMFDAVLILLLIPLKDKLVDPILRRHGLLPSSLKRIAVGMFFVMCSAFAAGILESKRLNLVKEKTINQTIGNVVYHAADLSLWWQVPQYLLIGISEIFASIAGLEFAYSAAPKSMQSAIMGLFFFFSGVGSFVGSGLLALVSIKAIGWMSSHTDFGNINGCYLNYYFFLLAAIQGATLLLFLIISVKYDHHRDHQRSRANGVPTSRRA
Sequence of TASL-SLC15A4 complex (Q8N697 whole entry, one chain of several): as the sequence (Q8N697 whole entry) above
Sequence of TASL-GFP (Homo sapiens) (Q8N697 whole entry): as above

CCOc1ccc(-c2cc(C(=O)NCCCN3CCCCC3C)c3ccccc3n2)cc1 (stereo not shown) [dTASL1, 2-(4-ethoxyphenyl)-N-(3-(2-methylpiperidin-1-yl)propyl) quinoline-4-carboxamide]
TASL-GFP levels (TASL-GFP (Homo sapiens)): reduced TASL-GFP levels
TASL-GFP levels and localization by microscopy (TASL-GFP): a reduction of TASL-GFP levels accompanied by relocalisation
PM-associated TASL levels (TASL-SLC15A4 complex): severely reduced PM-associated TASL levels
TLR7/8-induced IRF5 activation (IRF5): specifically impairs TLR7/8-induced IRF5 activation
